Columns and labels:
HCT-116 cell growth = test: Whole Cell Cytotoxicity Assay: Sulforhodamine B; type: cell-based, Human; conditions: 100 μM compound, 96 hours, SRB staining; for inhibition at 100 µM: Homo sapiens, HCT-116
Description: Human tumor-derived cell lines, HCT116 or MCF7 (ATCC) were plated in a 96 well plate in DMEM containing 10% fetal bovine serum and 2 mM L-glutamine at a density of 500 HCT116 cells or 1,000 MCF7 cells per well and incubated at 37° C., 5% CO2, for 24 hours prior to the addition of experimental compounds. Compounds were added using the dilution series indicated to duplicate plates and the cells were incubated in media plus compound for 96 hours. An additional plate was fixed in 10% TCA at the time of the addition of compound to provide a measurement of the cell population at time zero, the time of drug addition. Following the 96 hour incubation, cells were fixed in situ by gently aspirating off the culture media and then adding 50 ul of ice cold 10% TCA per well and incubation at 4° C. for 60 minutes. The plates were washed with tap water five times and allowed to air dry for 5 minute. 50 ul of a 0.4% (w/v) Sulforhodamine B solution in 1% (v/v) acetic acid was added per well and the cells were incubated for 30 minutes at room temperature. Following staining, plates were washed four times with 1% acetic acid to remove any unbound dye and then allowed to air dry for 5 minutes. The stain was solubilized with 100 ul of 10 mM Tris pH 10.5 per well and placed on an orbital rotator for 5 minutes. The absorbance was read at 570 nm. Percentage growth was calculated using the absorbance readings from the time zero plate (Tz) and the dilution series plate […] which included a column of cells grown in media without compound as a control (C) using the formulas: [(Ti−Tz)/(C−Tz)]×100 for concentrations for which Ti>/=Tz [(Ti−Tz)/Tz]×100 for concentrations for which Ti<Tz.
Three dose response parameters were calculated for each experimental agent. Growth inhibition of 50% (GI50) was calculated from [(Ti−Tz)/(C−Tz)]×100=50, which was the drug concentration resulting in a 50% reduction in the net protein increase (as measured by SRB staining) in control cells during the drug incubation. The drug concentration resulting in total growth inhibition (TGI) was calculated from Ti=Tz. The LC50 (concentration of drug resulting in a 50% reduction in the measured protein at the end of the drug treatment as compared to that at the beginning) indicating a net loss of cells following treatment was calculated from [(Ti−Tz)/Tz]×100=−50. Values are calculated for each of these three parameters if the level of activity was reached; however, if the effect was not reached or was exceeded, the value for that parameter is expressed as greater or less than the maximum or minimum concentration tested.

recombinant Aurora A = molecular target: T1, recombinant Aurora A (Homo sapiens, UniProt O14965); test: Aurora A (Aurora 2) Inhibition Assay (Z'-Lyte); type: biochemical; conditions: 100 μM compound; ATP 10 μM; 1 h
T1 construct: purchased Upstate, Lake Placid, N.Y
T1 sequence (O14965 1-403): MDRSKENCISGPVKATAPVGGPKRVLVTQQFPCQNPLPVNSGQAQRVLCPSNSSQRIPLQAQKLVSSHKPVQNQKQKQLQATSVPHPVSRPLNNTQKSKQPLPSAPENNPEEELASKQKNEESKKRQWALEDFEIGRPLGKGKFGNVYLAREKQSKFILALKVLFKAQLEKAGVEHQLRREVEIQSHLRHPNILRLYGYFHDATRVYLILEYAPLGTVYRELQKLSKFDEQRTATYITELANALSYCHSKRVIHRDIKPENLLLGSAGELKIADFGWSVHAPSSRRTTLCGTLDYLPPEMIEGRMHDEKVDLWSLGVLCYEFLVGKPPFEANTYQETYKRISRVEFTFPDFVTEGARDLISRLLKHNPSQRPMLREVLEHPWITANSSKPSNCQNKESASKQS
Description: Compounds were tested for their potency against recombinant Aurora A (Upstate, Lake Placid, N.Y.) using the PanVera Z'-Lyte kinase assay kit-Ser/[…] peptide (Invitrogen, Carlsbad, Calif.). […] Assays were carried out in half-area 96-well white polystyrene assay plates (Corning, Corning, N.Y.) in a final volume of 20 μl. The reaction was allowed to proceed for 1 h at room temperature in the dark, at which point the development reagent and stop reagent were added according to the manufacturer's instructions. Coumarin (Ex. 400 nm, Em. 465 nm) and fluorescein (Ex. 400 nm, Em. 565 nm) fluorescence values were measured on a SpectraFluor Plus plate reader (Tecan, Durham, N.C.). The emission ratio (coumarin/fluorescein) was determined and used to calculate the percent phosphorylation for each well. […] Typically 20-40% of the substrate was phosphorylated in wells without inhibitor. Dose-response curves of relative Aurora A activity vs. inhibitor concentration were plotted with Grafit (Erithacus Software, Horley, Surrey, UK).

Molecule `CCOC(=O)c1nc(/C=C/c2ccc(Cl)cc2)nc(Nc2cc(C)n[nH]2)c1N` [Example 19, ethyl 5-amino-2-[(E)-2-(4-chlorophenyl)vinyl]-6-[(3-methyl-1H-pyrazol-5-yl)amino]pyrimidine-4-carboxylate] has an inhibition at 100 µM (HCT-116 cell growth) of 96% and an inhibition at 100 µM (recombinant Aurora A) of 99%.

With `CCOC(=O)c1nc(/C=C/c2ccc(C)cc2)nc(Nc2cc(C)n[nH]2)c1N` [Example 21, ethyl 5-amino-2-[(E)-2-(4-methylphenyl)vinyl]-6-[(3-methyl-1H-pyrazol-5-yl)amino]pyrimidine-4-carboxylate] the inhibition at 100 µM (HCT-116 cell growth) was 93% and the inhibition at 100 µM (recombinant Aurora A) was 100%.

For `Cc1cc(Nc2nc(/C=C/c3ccccc3)nc(C(=O)OC3CCN(C)CC3)c2N)[nH]n1` [Example 24, 1-methylpiperidin-4-yl 5-amino-6-[(3-methyl-1H-pyrazol-5-yl)amino]-2-[(E)-2-phenylvinyl]pyrimidine-4-carboxylate], the inhibition at 100 µM (HCT-116 cell growth) was 99% and the inhibition at 100 µM (recombinant Aurora A) was 100%.

For `CCOC(=O)c1nc(/C=C/c2ccc(OC)cc2)nc(Nc2cc(C)n[nH]2)c1N` [Example 23, ethyl 5-amino-2-[(E)-2-(4-methoxyphenyl)vinyl]-6-[(3-methyl-1H-pyrazol-5-yl)amino]pyrimidine-4-carboxylate], the inhibition at 100 µM (HCT-116 cell growth) was 91% and the inhibition at 100 µM (recombinant Aurora A) was 99%.

Molecule `Cc1cc(Nc2cc(Nc3ccccc3)nc(/C=C/c3ccccc3)n2)n[nH]1` [Example 82, N^4-(5-methyl-1H-pyrazol-3-yl)-N^6-phenyl-2-styrylpyrimidine-4,6-diamine] has an inhibition at 100 µM (HCT-116 cell growth) of 98% and an inhibition at 100 µM (recombinant Aurora A) of 100%.

`Cc1cc(Nc2nc(/C=C/c3ccc(F)cc3)nc(N3CCN(C)CC3)c2N)n[nH]1` [Example 173] showed an inhibition at 100 µM (HCT-116 cell growth) of 98% and an inhibition at 100 µM (recombinant Aurora A) of 100%.

Molecule `COC(=O)c1ccc(/C=C/c2nc(Nc3cc(C)[nH]n3)c(N)c(N3CCN(C)CC3)n2)cc1` [Example 39, methyl 4-((E)-2-{5-amino-4-(4-methylpiperazin-1-yl)-6-[(3-methyl-1H-pyrazol-5-yl)amino]-pyrimidin-2-yl}vinyl)benzoate] has an inhibition at 100 µM (HCT-116 cell growth) of 97% and an inhibition at 100 µM (recombinant Aurora A) of 100%.

With “2-(4-methoxystyryl)-N-(5-methyl-1H-pyrazol-3-yl)-6-(4-methylpiperazin-1-yl)pyrimidin-4-amine [Example 161]” the “% Inhibition of HCT-116 cell growth @ 100 μM” value (HCT-116 cell growth) was 93% and the “% Inhibition of Aurora A @ 100 μM” value (recombinant Aurora A) was 100%.

`Cc1cc(Nc2nc(/C=C/c3ccc(Cl)cc3)nc(N3CCN(C)CC3)c2N)n[nH]1` [Example 172] gave an inhibition at 100 µM (HCT-116 cell growth) of 99% and an inhibition at 100 µM (recombinant Aurora A) of 99%.

Work on `CCOC(=O)c1nc(/C=C/c2cccc(F)c2)nc(Nc2cc(C)n[nH]2)c1N` [Example 22, ethyl 5-amino-2-[(E)-2-(3-fluorophenyl)vinyl]-6-[(3-methyl-1H-pyrazol-5-yl)amino]pyrimidine-4-carboxylate] yielded an inhibition at 100 µM (HCT-116 cell growth) of 85% and an inhibition at 100 µM (recombinant Aurora A) of 97%.

Molecule `Cc1cc(Nc2cc(NCc3ccco3)nc(/C=C/c3ccccc3)n2)n[nH]1` [Example 162, N^4-((furan-2-yl)methyl)-N^6-(5methyl-1H-pyrazol-3-yl)-2-styrylpyrimidine-4,6-diamine] has an inhibition at 100 µM (HCT-116 cell growth) of 98% and an inhibition at 100 µM (recombinant Aurora A) of 100%.

`CCOC(=O)c1nc(/C=C/c2ccc(C(F)(F)F)cc2)nc(Nc2cc(C)n[nH]2)c1N` [Example 20, ethyl 5-amino-6-[(3-methyl-1H-pyrazol-5-yl)amino]-2-{(E)-2-[4-(trifluoromethyl)phenyl]vinyl}pyrimidine-4-carboxylate] gave an inhibition at 100 µM (HCT-116 cell growth) of 97% and an inhibition at 100 µM (recombinant Aurora A) of 77%.

`Cc1cc(Nc2cc(N3CCOCC3)nc(/C=C/c3ccccc3)n2)n[nH]1` [Example 64, N-(5-methyl-1H-pyrazol-3-yl)-6-morpholino-2-styrylpyrimidin-4-amine] was tested, and the inhibition at 100 µM (HCT-116 cell growth) was 98% and the inhibition at 100 µM (recombinant Aurora A) was 100%.
